Source: US20150031668A1, “CHROMAN DERIVATIVES AS TRPM8 INHIBITORS” (AMGEN INC., priority 2013, published 2015)

target: T1, human TRPM8 (Homo sapiens, UniProt Q7Z2W7); assay: Luminescence readout assay for measuring intracellular calcium (aequorin, CHO cells expressing human TRPM8; icilin, L-menthol or cold activation); type: cell-based; details: CHO cells expressing human TRPM8, icilin activation (1 μM), aequorin luminescence; read-out: hTRPM8 IC50
T1 construct: expressed in transfected cells; host or cells: Chinese hamster ovary (CHO) cells, T-REx tetracycline-inducible expression system (Invitrogen); co-transfected with pcDNA3.1 aequorin
Procedure, shortened: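 Activation was by 1 μM icilin, 100 μM L-menthol (test compound 2.5 min ahead) or cold buffer below 10° C (compound 1 min ahead). Calcium rise measured as aequorin luminescence in CHO cells with tetracycline-inducible human TRPM8.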

T1 sequence (Q7Z2W7 whole entry): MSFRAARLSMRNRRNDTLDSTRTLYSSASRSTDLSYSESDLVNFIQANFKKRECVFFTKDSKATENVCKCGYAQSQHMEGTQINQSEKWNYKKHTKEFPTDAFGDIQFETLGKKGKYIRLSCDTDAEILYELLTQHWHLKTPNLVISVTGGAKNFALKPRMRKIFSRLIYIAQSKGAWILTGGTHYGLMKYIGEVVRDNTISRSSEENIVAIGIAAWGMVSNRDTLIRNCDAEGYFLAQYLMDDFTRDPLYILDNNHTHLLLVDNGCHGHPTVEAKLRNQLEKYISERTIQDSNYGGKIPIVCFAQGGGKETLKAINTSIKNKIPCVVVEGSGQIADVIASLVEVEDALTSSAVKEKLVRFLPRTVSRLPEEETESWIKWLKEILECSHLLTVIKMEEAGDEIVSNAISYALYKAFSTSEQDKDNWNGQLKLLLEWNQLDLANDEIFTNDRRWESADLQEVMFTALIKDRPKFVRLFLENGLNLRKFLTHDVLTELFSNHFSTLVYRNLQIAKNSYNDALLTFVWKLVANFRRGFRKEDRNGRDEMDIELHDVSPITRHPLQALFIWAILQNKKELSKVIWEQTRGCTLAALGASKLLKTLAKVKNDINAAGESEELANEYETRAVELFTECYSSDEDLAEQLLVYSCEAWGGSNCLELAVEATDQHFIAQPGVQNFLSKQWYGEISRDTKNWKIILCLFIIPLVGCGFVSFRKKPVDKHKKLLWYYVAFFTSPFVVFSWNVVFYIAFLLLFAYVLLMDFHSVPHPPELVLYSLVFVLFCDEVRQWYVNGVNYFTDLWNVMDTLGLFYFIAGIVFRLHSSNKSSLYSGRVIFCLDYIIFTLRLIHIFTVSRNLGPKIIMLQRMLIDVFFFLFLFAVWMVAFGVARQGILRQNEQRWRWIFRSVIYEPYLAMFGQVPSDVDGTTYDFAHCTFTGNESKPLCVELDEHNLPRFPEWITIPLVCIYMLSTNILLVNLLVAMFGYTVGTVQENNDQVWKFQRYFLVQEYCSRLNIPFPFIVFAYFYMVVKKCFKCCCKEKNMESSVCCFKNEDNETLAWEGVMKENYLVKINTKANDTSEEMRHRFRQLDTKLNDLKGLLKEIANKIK

Structure (SMILES)	IC50 [µM]
N#Cc1cncc(-c2ccc([C@@]3(NC(=O)c4ccc(F)cc4)CCOc4cccnc43)cc2)c1 [Example 141, (S)-N-(4-(4-(5-cyanopyridin-3-yl)phenyl)-3,4-dihydro-2H-pyrano[3,2-b]pyridin-4-yl)-4-fluorobenzamide]	0.26
COc1cc(-c2ccc([C@@]3(NC(=O)c4ccc(F)cc4)CCOc4cccnc43)cc2)ccn1 [Example 146, (S)-4-fluoro-N-(4-(4-(2-methoxypyridin-4-yl)phenyl)-3,4-dihydro-2H-pyrano[3,2-b]pyridin-4-yl)benzamide]	0.088
Cc1ccc(-c2ccc([C@@]3(NC(=O)c4ccc(F)cc4)CCOc4cccnc43)cc2)cc1N [Example 148, (S)-N-(4-(3′-amino-4′-methyl-[1,1′-biphenyl]-4-yl)-3,4-dihydro-2H-pyrano[3,2-b]pyridin-4-yl)-4-fluorobenzamide]	0.77
COc1ncc(-c2ccc([C@@]3(NC(=O)c4ccc(F)cc4)CCOc4cccnc43)cc2)c(OC)n1 [Example 149, (S)-N-(4-(4-(2,4-dimethoxypyrimidin-5-yl)phenyl)-3,4-dihydro-2H-pyrano[3,2-b]pyridin-4-yl)-4-fluorobenzamide]	0.299
Cc1nnc(-c2cccc(-c3ccc([C@@]4(NC(=O)c5ccc(F)cc5)CCOc5cccnc54)cc3)c2)o1 [Example 150, (S)-4-fluoro-N-(4-(3′-(5-methyl-1,3,4-oxadiazol-2-yl)-[1,1′-biphenyl]-4-yl)-3,4-dihydro-2H-pyrano[3,2-b]pyridin-4-yl)benzamide]	1.19
O=C(N[C@]1(c2ccc(-c3ccc(CO)cc3)cc2)CCOc2cccnc21)c1ccc(F)cc1 [Example 151, (S)-4-fluoro-N-(4-(4′-(hydroxymethyl)-[1,1′-biphenyl]-4-yl)-3,4-dihydro-2H-pyrano[3,2-b]pyridin-4-yl)benzamide]	1.64
CC(C)(C)[S@@+]([O-])N[C@]1(c2ccc(OC(F)(F)F)c(F)c2)CCOc2cccnc21 [Example 152, (R)—N—((S)-4-(3-fluoro-4-(trifluoromethoxy)phenyl)-3,4-dihydro-2H-pyrano[3,2-b]pyridin-4-yl)-2-methylpropane-2-sulfinamide]	2.4
N#Cc1ccc(-c2ccc([C@@]3(NC(=O)c4ccc(F)cc4)CCOc4cccnc43)cc2)cc1 [Example 153, (S)—N-(4-(4′-cyano-[1,1′-biphenyl]-4-yl)-3,4-dihydro-2H-pyrano[3,2-b]pyridin-4-yl)-4-fluorobenzamide]	0.112
Cn1cncc1C(=O)N[C@]1(c2ccc(OC(F)(F)F)c(F)c2)CCOc2cccnc21 [Example 163, (S)—N-(4-(3-fluoro-4-(trifluoromethoxy)phenyl)-3,4-dihydro-2H-pyrano[3,2-b]pyridin-4-yl)-1-methyl-1H-imidazole-5-carboxamide 2,2,2-trifluoroacetate]	0.102
O=C(N[C@]1(c2ccc(OC(F)(F)F)c(F)c2)CC(=O)c2cccnc21)c1ccc(=O)[nH]c1 [Example 165, (S)-N-(7-(3-fluoro-4-(trifluoromethoxy)phenyl)-5-oxo-6,7-dihydro-5H-cyclopenta[b]pyridin-7-yl)-6-oxo-1,6-dihydropyridine-3-carboxamide]	0.531
Cc1cc(C(=O)N[C@]2(c3ccc(OC(F)(F)F)c(F)c3)CCOc3cccnc32)ncc1Br [Example 166, (S)-5-bromo-N-(4-(3-fluoro-4-(trifluoromethoxy)phenyl)-3,4-dihydro-2H-pyrano[3,2-b]pyridin-4-yl)-4-methylpicolin amide]	0.01
CC1(C)COC(c2ccc(C(=O)N[C@]3(c4ccc(OC(F)(F)F)c(F)c4)CCOc4cccnc43)cc2)=N1 [Example 168, (S)-4-(4,4-dimethyl-4,5-dihydrooxazol-2-yl)-N-(4-(3-fluoro-4-(trifluoromethoxy)phenyl)-3,4-dihydro-2H-pyrano[3,2-b]pyridin-4-yl)benzamide]	0.146
CCOC(=O)c1ccc(C(=O)N[C@]2(c3ccc(OC(F)(F)F)c(F)c3)CCOc3cccnc32)nc1C [Example 169, (S)-ethyl 6-((4-(3-fluoro-4-(trifluoromethoxy)phenyl)-3,4-dihydro-2H-pyrano[3,2-b]pyridin-4-yl)carbamoyl)-2-methylnicotinate]	0.032
N#Cc1ccc(C(=O)N[C@]2(c3ccc(OC(F)(F)F)c(F)c3)CCOc3cccnc32)nc1 [Example 171, (S)-5-cyano-N-(4-(3-fluoro-4-(trifluoromethoxy)phenyl)-3,4-dihydro-2H-pyrano[3,2-b]pyridin-4-yl) picolinamide]	0.012
COC(=O)c1ccc(C(=O)N[C@]2(c3ccc(C(F)(F)F)c(F)c3)CCOc3cccnc32)nc1 [Example 172, (S)-methyl 6-((4-(3-fluoro-4-(trifluoromethyl)phenyl)-3,4-dihydro-2H-pyrano[3,2-b]pyridin-4-yl)carbamoyl) nicotinate]	0.022
O=C(N[C@]1(c2ccc(OC(F)(F)F)cc2F)CCOc2cccnc21)c1ccc(=O)[nH]c1 [Example 173, (S)-N-(4-(2-fluoro-4-(trifluoromethoxy)phenyl)-3,4-dihydro-2H-pyrano[3,2-b]pyridin-4-yl)-6-oxo-1,6-dihydropyridine-3-carboxamide]	0.475
COC(=O)c1ccc(C(=O)N[C@]2(c3ccc(OC(F)(F)F)cc3F)CCOc3cccnc32)nc1 [Example 174, (S)-methyl 6-((4-(2-fluoro-4-(trifluoromethoxy)phenyl)-3,4-dihydro-2H-pyrano[3,2-b]pyridin-4-yl)carbamoyl) nicotinate]	0.128
COC(=O)c1ccc(C(=O)N[C@]2(c3ccc(C(F)(F)F)cc3)CCOc3cccnc32)nc1 [Example 175, (S)-methyl 6-((4-(4-(trifluoromethyl)phenyl)-3,4-dihydro-2H-pyrano[3,2-b]pyridin-4-yl)carbamoyl) nicotinate]	0.043

The next lines start with the values.

IC50 [µM]	Structure (SMILES)
0.34	O=C(N[C@]1(c2ccc(-c3cc(F)ccc3CO)cc2)CCOc2cccnc21)c1ccc(F)cc1 [Example 140, (S)-4-fluoro-N-(4-(5′-fluoro-2′-(hydroxymethyl)-[1,1′-biphenyl]-4-yl)-3,4-dihydro-2H-pyrano[3,2-b]pyridin-4-yl)benzamide]
0.336	O=C(N[C@]1(c2ccc(-c3cccc(N4CCOCC4)c3)cc2)CCOc2cccnc21)c1ccc(F)cc1 [Example 142, (S)-4-fluoro-N-(4-(3′-morpholino-[1,1′-biphenyl]-4-yl)-3,4-dihydro-2H-pyrano[3,2-b]pyridin-4-yl)benzamide]
0.176	Nc1ccccc1-c1ccc([C@@]2(NC(=O)c3ccc(F)cc3)CCOc3cccnc32)cc1 [Example 143, (S)-N-(4-(2′-amino-[1,1′-biphenyl]-4-yl)-3,4-dihydro-2H-pyrano[3,2-b]pyridin-4-yl)-4-fluorobenzamide]
1.92	CS(=O)(=O)c1ccccc1-c1ccc([C@@]2(NC(=O)c3ccc(F)cc3)CCOc3cccnc32)cc1 [Example 144, (S)-4-fluoro-N-(4-(2′-(methylsulfonyl)-[1,1′-biphenyl]-4-yl)-3,4-dihydro-2H-pyrano[3,2-b]pyridin-4-yl)benzamide]
0.07	O=C(N[C@]1(c2ccc(-c3ccoc3)cc2)CCOc2cccnc21)c1ccc(F)cc1 [Example 145, (S)-4-fluoro-N-(4-(4-(furan-3-yl)phenyl)-3,4-dihydro-2H-pyrano[3,2-b]pyridin-4-yl)benzamide]
1.53	Nc1ccc(-c2ccc([C@@]3(NC(=O)c4ccc(F)cc4)CCOc4cccnc43)cc2)cc1 [Example 147, (S)-N-(4-(4′-amino-[1,1′-biphenyl]-4-yl)-3,4-dihydro-2H-pyrano[3,2-b]pyridin-4-yl)-4-fluorobenzamide]
0.091	N#Cc1ccc(-c2ccc([C@@]3(NC(=O)c4ccccc4)CCOc4cccnc43)cc2)cc1 [Example 154, (S)—N-(4-(4′-cyano-[1,1′-biphenyl]-4-yl)-3,4-dihydro-2H-pyrano[3,2-b]pyridin-4-yl)benzamide]
0.008	CC(=O)c1ccc(C(=O)N[C@]2(c3ccc(OC(F)(F)F)c(F)c3)CCOc3cccnc32)cc1 [Example 156, (S)-4-acetyl-N-(4-(3-fluoro-4-(trifluoromethoxy)phenyl)-3,4-dihydro-2H-pyrano[3,2-b]pyridin-4-yl)benzamide]
0.039	O=C(N[C@]1(c2ccc(OC(F)(F)F)c(F)c2)CCOc2cccnc21)c1ccc(C(=O)C(F)(F)F)cc1 [Example 160, (S)—N-(4-(3-fluoro-4-(trifluoromethoxy)phenyl)-3,4-dihydro-2H-pyrano[3,2-b]pyridin-4-yl)-4-(2,2,2-trifluoroacetyl)benzamide 2,2,2-trifluoroacetate]
0.042	O=C(O)c1ccc(C(=O)N[C@@]2(c3ccc(OC(F)(F)F)c(F)c3)COc3cccnc32)nc1 [Example 161, (R)-6-((3-(3-Fluoro-4-(trifluoromethoxy)phenyl)-2,3-dihydrofuro[3,2-b]pyridin-3-yl)carbamoyl)nicotinic acid]
0.092	CCOC(=O)c1ncc(C(=O)N[C@]2(c3ccc(OC(F)(F)F)c(F)c3)CCOc3cccnc32)[nH]1 [Example 162]
2.23	O=C(N[C@]1(c2ccc(OC(F)(F)F)c(F)c2)CCOc2nccnc21)c1ccc(=O)[nH]c1 [Example 164, (S)-N-(8-(3-fluoro-4-(trifluoromethoxy)phenyl)-7,8-dihydro-6H-pyrano[2,3-b]pyrazin-8-yl)-6-oxo-1,6-dihydropyridine-3-carboxamide]
0.019	Cc1cc(C(=O)N[C@]2(c3ccc(OC(F)(F)F)c(F)c3)CCOc3cccnc32)ccc1Br [Example 167, (S)-4-bromo-N-(4-(3-fluoro-4-(trifluoromethoxy)phenyl)-3,4-dihydro-2H-pyrano [3,2-b]pyridin-4-yl)-3-methylbenzamide]
0.054	COC(=O)c1ccc(C(=O)N[C@]2(c3ccc(OC(F)(F)F)cc3)CCOc3cccnc32)nc1 [Example 176, (S)-methyl 6-((4-(4-(trifluoromethoxy)phenyl)-3,4-dihydro-2H-pyrano[3,2-b]pyridin-4-yl)carbamoyl) nicotinate]
